Assay results reported in ChEMBL document CHEMBL2218064, “Structure-activity relationship data for chemical series of antagonists of the P2X7 receptor (Supplementary Bioactivity Data for publication CHEMBL1157114)”.

target: T1, P2X purinoceptor 7 (Homo sapiens, UniProt Q99572); assay: SUPPLEMENTARY: Inhibition of human P2X7 receptor assessed as inhibition of ethidium bromide accumulation. Same assay as CHEMBL1103860
T1 sequence (Q99572 whole entry): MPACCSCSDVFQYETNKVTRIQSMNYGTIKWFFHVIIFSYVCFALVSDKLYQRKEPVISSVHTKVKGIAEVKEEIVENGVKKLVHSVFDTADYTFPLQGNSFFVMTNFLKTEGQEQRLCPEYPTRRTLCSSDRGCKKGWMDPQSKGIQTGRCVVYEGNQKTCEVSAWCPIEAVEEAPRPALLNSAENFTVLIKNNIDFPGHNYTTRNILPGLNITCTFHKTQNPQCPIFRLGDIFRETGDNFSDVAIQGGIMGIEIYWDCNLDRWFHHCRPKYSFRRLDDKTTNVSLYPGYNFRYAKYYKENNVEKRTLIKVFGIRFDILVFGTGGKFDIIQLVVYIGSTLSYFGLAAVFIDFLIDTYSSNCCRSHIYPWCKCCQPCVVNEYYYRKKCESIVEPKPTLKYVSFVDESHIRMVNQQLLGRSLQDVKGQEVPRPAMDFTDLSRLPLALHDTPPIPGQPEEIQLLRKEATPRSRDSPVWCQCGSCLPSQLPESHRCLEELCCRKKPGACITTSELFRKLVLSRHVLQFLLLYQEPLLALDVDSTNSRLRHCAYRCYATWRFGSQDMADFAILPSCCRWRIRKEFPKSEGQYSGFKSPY

Row | Structure (SMILES) | IC50
1 | CC1(C(=O)NCc2ccc(Cl)cc2Cl)CCC(=O)N1C1CC1 (stereo unspecified) | 10 nM
2 | O=C1C(=O)N(c2cccc(Cl)c2Cl)CCN1Cc1cccc(Cl)c1 | 501 nM
3 | O=C(c1ccc(Cl)cc1Cl)N1CCn2c(nnc2-c2ccncn2)C1 | 31.6 nM
4 | Cc1cnn(C)c1CC(=O)NCc1ccc(F)c(F)c1Cl | 31.6 nM
5 | CN1C(=O)CC[C@H]1C(=O)NCc1c(Cl)cccc1Cl | 126 nM
6 | Cc1nn(CC(=O)O)c(C)c1CC(=O)NCc1ccc(F)cc1Cl | 1260 nM
7 | CCN1CCN(C(=O)c2cccc(C(F)(F)F)c2Cl)CC1=O | 126 nM
8 | Cc1nn(-c2ccc(Cl)cn2)c(C)c1CC(=O)NCc1ccc(F)cc1Cl | 251 nM
9 | CCN1C(=O)CC[C@H]1C(=O)NCc1ccc(F)c(F)c1F | 158 nM
10 | CN1C(=O)CC[C@H]1C(=O)NCc1ccc(F)c(Cl)c1Cl | 12.6 nM
11 | CCCN1CCN(C(=O)c2cccc(C(F)(F)F)c2Cl)CC1=O | 50.1 nM
12 | O=C(NCc1ccc(F)cc1Cl)C1COCC(=O)N1Cc1ccccc1 (stereo unspecified) | 501 nM
13 | O=C(c1cccc(Cl)c1F)N1CCN(c2ccc(F)cc2Cl)C(=O)C1 | 158 nM
14 | O=C(c1ccccc1Cl)N1CCn2c(nnc2-c2ccc(F)cn2)C1 | 39.8 nM
15 | CCN1C(=O)CC[C@H]1C(=O)NCc1cccc(Cl)c1C | 15.8 nM
16 | Cc1ccc(N2CCOCC2)cc1N1CCN(C(=O)c2cccc(Cl)c2Cl)CC1=O | 15.8 nM
17 | CN1C(=O)N(c2cncn2C)C[C@H]1C(=O)NCc1ccc(Cl)cc1Cl | 10 nM
18 | CN1C(=O)CC[C@H]1C(=O)NCc1cccc2ccccc12 | 1.58 nM
19 | CN1C(=O)NC[C@H]1C(=O)NCc1ccc(F)c(C(F)(F)F)c1 | 100 nM
20 | O=C(Cc1cnn(-c2ccc(F)cc2)c1C(F)(F)F)NCc1ccc(F)cc1Cl | 1260 nM
21 | Cc1ccccc1CN1CCN(c2cccc(Cl)c2Cl)C(=O)C1=O | 251 nM
22 | O=C(c1cccc(C(F)(F)F)c1Cl)N1CCN(c2ccccc2Cl)C(=O)C1 | 5.01 nM
23 | O=C(c1cccc(Cl)c1Cl)N1CCN(c2cc(N3CCOCC3)ccc2Cl)C(=O)C1 | 5.01 nM
24 | O=C(c1cccc(C(F)(F)F)c1Cl)N1CCn2c(-c3cscn3)cnc2C1 | 1.26 nM
25 | CN1CCN(C(=O)c2ccc(Cl)cc2Cl)CC1=O | 251 nM
26 | CCN1[C@H](C(=O)NCc2ccc(F)c(F)c2F)CCS1(=O)=O | 251 nM

Row | Structure (SMILES) | IC50
27 | CN1C(=O)N(CCF)C[C@H]1C(=O)NCc1ccc(Cl)cc1Cl | 3.16 nM
28 | CN1C(=O)N(c2cn(C)cn2)C[C@H]1C(=O)NCc1ccc(Cl)cc1Cl | 7.94 nM
29 | CCN1C(=O)NC[C@H]1C(=O)NCc1ccc(F)cc1Cl | 39.8 nM
30 | CN1C(=O)N(c2nccc(C(F)(F)F)n2)C[C@H]1C(=O)NCc1ccc(Cl)cc1Cl | 31.6 nM
31 | O=C(c1ccc(F)cc1Cl)N1CCn2c(nnc2-c2ccc(F)c(F)c2)C1 | 50.1 nM
32 | Cc1c(N2CCOCC2)cccc1N1CCN(Cc2ccc(F)cc2Cl)C(=O)C1=O | 31.6 nM
33 | N#Cc1c(F)cccc1N1CCN(Cc2ccc(F)cc2Cl)C(=O)C1=O | 631 nM
34 | O=C(c1ccc(F)cc1Cl)N1CCn2c(nnc2-c2cccc3cccnc23)C1 | 251 nM
35 | CN1C[C@@H](C(=O)NCc2ccc(F)cc2Cl)N(C)C1=O | 10 nM
36 | CCN1CCN(C(=O)c2cccc(Cl)c2Cl)CC1=O | 200 nM
37 | CCN1C(=O)[C@@H](Cc2ccccc2)C[C@H]1C(=O)NCc1ccc(F)cc1Cl | 126 nM
38 | COc1cccc(OC)c1N1CCN(Cc2ccc(F)cc2Cl)C(=O)C1=O | 20 nM
39 | CN1C(=O)N(CCCN2CCOCC2)CC1C(=O)NCc1cccc(C(F)(F)F)c1Cl (stereo unspecified) | 50.1 nM
40 | O=C1C(=O)N(c2cncc3ccccc23)CCN1Cc1ccc(F)cc1Cl | 158 nM
41 | CN1C(=O)N(c2cccnc2Cl)C[C@H]1C(=O)NCc1ccc(F)c(F)c1Cl | 10 nM
42 | O=C1C(=O)N(c2cc(Cl)ccc2N2CCOCC2)CCN1Cc1ccc(F)cc1Cl | 31.6 nM
43 | Cc1c(F)cccc1N1CCN(Cc2ccc(F)cc2Cl)C(=O)C1=O | 100 nM
44 | CN1C[C@@H](C(=O)NCc2ccc(F)cc2C(F)(F)F)N(C)C1=O | 50.1 nM
45 | O=C(c1cccc(C(F)(F)F)c1Cl)N1CCn2c(nc(Br)c2-c2ccc(F)cc2)C1 | 31.6 nM
46 | O=C(c1cccc(Cl)c1Cl)N1CCn2cc(-c3ccccc3)nc2C1 | 631 nM
47 | O=C(c1cccc(C(F)(F)F)c1Cl)N1CCn2c(nc(C(F)(F)F)c2Br)C1 | 5.01 nM
48 | O=C(c1ccc(F)c(C(F)(F)F)c1)N1CCn2c(nnc2-c2cnccn2)C1 | 12.6 nM
49 | Cc1c(Cl)cccc1CNC(=O)[C@@H]1CCC(=O)N1C(C)C | 15.8 nM
50 | Cc1ccc(-c2cccc(N3CCN(C(=O)c4cccc(C(F)(F)F)c4Cl)CC3=O)c2C)cn1 | 50.1 nM
51 | CN1C(=O)CCC1(C)C(=O)NCc1ccc(Cl)cc1Cl (stereo unspecified) | 200 nM
52 | CN1C(=O)N(CCN2CCOCC2)CC1C(=O)NCc1ccc(F)cc1Cl (stereo unspecified) | 251 nM

Row | Structure (SMILES) | IC50
53 | O=C(c1cccc(F)c1F)N1CCN(c2ccc(F)cc2Cl)C(=O)C1 | 316 nM
54 | O=C(c1ccccc1C(F)(F)F)N1CCn2c(nnc2-c2ccccn2)C1 | 63.1 nM
55 | O=C1C(=O)N(c2cccc(Cl)c2Cl)CCN1Cc1ccc(Cl)cc1 | 794 nM
56 | O=C(c1cccc(C(F)(F)F)c1F)N1CCN(c2ccc(F)cc2Cl)C(=O)C1 | 63.1 nM
57 | CCN1CC(C(=O)NCc2cccc(C(F)(F)F)c2Cl)CC1=O (stereo unspecified) | 50.1 nM
58 | Cc1cc(F)ccc1C(=O)N1CCn2c(nnc2-c2cnccn2)C1 | 15.8 nM
59 | CN1C[C@@H](C(=O)NCc2ccc(C#N)cc2Cl)N(C)C1=O | 31.6 nM
60 | CCN1C(=O)CC[C@H]1C(=O)NCc1ccc(F)c(Cl)c1Cl | 3.16 nM
61 | Cc1c(N2CCCC2)cccc1N1CCN(C(=O)c2cccc(C(F)(F)F)c2Cl)CC1=O | 10 nM
62 | O=C(c1cccc(C(F)(F)F)c1Cl)N1CCN(c2cc(N3CCOCC3)ccc2Cl)C(=O)C1 | 7.94 nM
63 | CC(c1ccccc1)N1CCN(C(=O)c2cccc(C(F)(F)F)c2Cl)CC1=O (stereo unspecified) | 31.6 nM
64 | Cc1c(CNC(=O)[C@@H]2CCC(=O)N2C)cccc1C(F)(F)F | 3.16 nM
65 | O=C1C(=O)N(c2ccccc2-n2cccc2)CCN1Cc1ccc(F)cc1Cl | 100 nM
66 | Cc1cc(F)ccc1N1CCN(Cc2ccc(F)cc2Cl)C(=O)C1=O | 251 nM
67 | Cc1ccccc1N1CCN(Cc2cccc(C(F)(F)F)c2Cl)C(=O)C1=O | 39.8 nM
68 | CN1C(=O)N(c2cncnc2)C[C@H]1C(=O)NCc1ccc(F)cc1Cl | 251 nM
69 | Cc1nn(-c2ccccc2)c(C)c1CC(=O)NCc1ccc(F)cc1C(F)(F)F | 158 nM
70 | CC(C)CN1[C@H](C(=O)NCc2ccc(F)cc2Cl)CCS1(=O)=O | 501 nM
71 | O=C(NCc1cccc(C(F)(F)F)c1Cl)[C@H]1CCC(=O)N1Cc1ccccc1 | 31.6 nM
72 | Cc1nn(-c2ccccn2)c(C)c1CC(=O)NCc1ccc(F)cc1Cl | 100 nM
73 | Cc1c(N2CCOCC2)cccc1N1CCN(C(=O)c2cccc(Cl)c2Cl)CC1=O | 15.8 nM
74 | O=C(NCc1cccc(C(F)(F)F)c1Cl)C1CCC(=O)N1C1CC1 (stereo unspecified) | 1.26 nM
75 | O=C1C(=O)N(c2cccc(Cl)c2N2CCOCC2)CCN1Cc1ccc(F)cc1Cl | 39.8 nM
76 | Cc1ccc(N2C[C@@H](C(=O)NCc3ccc(Cl)cc3Cl)N(C)C2=O)c(C)n1 | 15.8 nM
77 | Cc1nn(-c2ccc(F)cc2F)c(C)c1CC(=O)NCc1ccc(F)cc1Cl | 50.1 nM
78 | COc1c(Cl)cccc1N1CCN(Cc2ccc(F)cc2Cl)C(=O)C1=O | 63.1 nM

Row | Structure (SMILES) | IC50
79 | CN1C(=O)N(c2cc(C(F)(F)F)ncn2)C[C@H]1C(=O)NCc1cccc(C(F)(F)F)c1Cl | 31.6 nM
80 | CCN1C(=O)[C@H](Cc2ccccc2)C[C@H]1C(=O)NCc1ccc(F)cc1Cl | 100 nM
81 | CC1(C(=O)NCc2ccc(Cl)cc2Cl)CCC(=O)N1C1CCC1 (stereo unspecified) | 100 nM
82 | O=C(c1cccc(Cl)c1Cl)N1CCn2c(nnc2-c2ccc(F)cc2F)C1 | 12.6 nM
83 | Cc1nn(CC(C)(C)O)c(C)c1CC(=O)NCc1cccc(Cl)c1C | 158 nM
84 | Cc1c(Cl)cccc1CNC(=O)[C@@H]1CNC(=O)N1C | 20 nM
85 | Cc1ncccc1N1C[C@@H](C(=O)NCc2cccc(Cl)c2Cl)N(C)C1=O | 39.8 nM
86 | Cc1ncccc1N1C[C@@H](C(=O)NCc2ccc(F)c(F)c2Cl)N(C)C1=O | 31.6 nM
87 | Cc1cc(F)cc(C)c1N1CCN(Cc2cccc(Cl)c2Cl)C(=O)C1=O | 50.1 nM
88 | Cc1ccc(C)c(CNC(=O)Cc2c(C)nn(-c3ccccc3)c2C)c1 | 794 nM
89 | CCc1ccccc1-n1cc(CC(=O)NCc2ccc(F)cc2Cl)cn1 | 251 nM
90 | Cc1ccc(N2CCN(Cc3ccc(F)cc3Cl)C(=O)C2=O)cc1C | 501 nM
91 | CN1[C@H](C(=O)NCc2ccc(Cl)cc2Cl)CCS1(=O)=O | 31.6 nM
92 | Cc1nn(-c2cccc(Cl)c2)c(C)c1CC(=O)NCc1ccc(F)cc1Cl | 316 nM
93 | CN1CCOc2cccc(N3CCN(Cc4ccc(F)cc4Cl)C(=O)C3=O)c21 | 251 nM
94 | O=C(c1ccc(Cl)cc1Cl)N1CCn2c(Br)nnc2C1 | 200 nM
95 | Cc1nn(-c2ccccc2)c(C)c1CC(=O)NCc1cccc(Cl)c1C | 31.6 nM
96 | O=C(NCc1ccc(Cl)cc1Cl)C1CC(=O)N(Cc2ccccc2)C1 (stereo unspecified) | 158 nM
97 | Cc1cc(Cl)ccc1CNC(=O)[C@@H]1CNC(=O)N1C | 31.6 nM
98 | O=C(c1cccc(C(F)(F)F)c1Cl)N1CCn2c(nc(I)c2I)C1 | 6.31 nM
99 | Cc1ccc(N2C[C@@H](C(=O)NCc3ccc(F)cc3Cl)N(C)C2=O)cn1 | 63.1 nM
100 | CN1C(=O)N(c2nccn2C)C[C@H]1C(=O)NCc1ccc(F)c(F)c1Cl | 39.8 nM
101 | CCCc1nnc2n1CCN(C(=O)c1cccc(C(F)(F)F)c1Cl)C2 | 25.1 nM
